Assay results reported in patent publication US6284914A, “Highly water-soluble metalloproteinase inhibitors” (Fuji Yakuhin Kogyo Kabushiki Kaisha, priority 1995, dated 2001).
Values after ≈ are worked out from the molar mass of the structure shown. Where a name gives a salt, the structure may show the parent alone.

Key:
TNF-α converting enzyme = target: T1, TNF-α converting enzyme (Homo sapiens, UniProt P78536); test: Assay for Suppression of TNF-α Production (LPS-stimulated U937 cells); assay type: cell-based; conditions: U937 cells (PMA-differentiated), Lipopoplysaccaride 0.1 μg/ml, 37° C., 6 hours, TNF-α in supernatant; read-out: Inhibitory activities for TNF-α converting enzyme, IC50 value
T1 construct: Human monocyte derived leukemia cell-line U937; endogenous in cells; host or cells: U937 (PMA-differentiated, LPS-stimulated)
Method: Human monocyte derived leukemia cell-line U937 [5% bovine fetal serum (Men-eki Seibutsu Ken) was added to RPMI1640 (Nissui Seiyaku) and incubated in a 5% CO2 incubation chamber at 37° C., whereby 1×10^6 cells/1 ml were placed into each well of a multi-well plate and then incubated in presence of Phorbol 12-myristate 13-acetate (10^-7 M, Wako Junyaku) overnight and differentiated to macrophage like cells.] was added with Lipopoplysaccaride (0.1 μg/ml, Sigma) derived from E.coli 0127:B8 strain alone or together with a compound in Examples, and incubated in a 5% CO2 incubation chamber at 37° C. for 6 hours. After the incubation, the culture medium was taken and centrifuged at 3000 g for 10 min., whereby the supernatant was diluted with purified water forthe measurement using the TNF-α measurement kit (Genzyme) (Table 2).

collagenase (MMP-1) = target: T2, collagenase (MMP-1) (Homo sapiens, UniProt P03956); test: Assay for Collagenase Inhibitory Activity (MMP-1); assay type: biochemical; conditions: fluorescein-labeled bovine type I collagen substrate, 35° C., 2 hours, pH 7.5; read-out: Inhibitory activities for matrix metalloproeinases (MMPs), MMP-1, IC50 value
T2 construct: endogenous in cells; host or cells: human fibroblast
T2 sequence (P03956 100-469): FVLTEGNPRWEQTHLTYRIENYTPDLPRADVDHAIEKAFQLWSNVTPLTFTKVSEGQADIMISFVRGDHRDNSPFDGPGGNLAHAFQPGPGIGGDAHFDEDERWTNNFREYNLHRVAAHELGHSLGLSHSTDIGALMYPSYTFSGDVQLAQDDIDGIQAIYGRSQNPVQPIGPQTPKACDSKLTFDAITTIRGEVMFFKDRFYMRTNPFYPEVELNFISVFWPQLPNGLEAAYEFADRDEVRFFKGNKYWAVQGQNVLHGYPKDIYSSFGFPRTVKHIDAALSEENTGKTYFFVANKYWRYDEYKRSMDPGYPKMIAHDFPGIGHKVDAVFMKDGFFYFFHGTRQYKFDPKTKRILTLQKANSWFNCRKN
Method: (§1) Inhibitory activities of the compounds represented by the general formula (I) according to the invention for collagenase (metalloproteinase concerned with a tissue destruction) derived from human fibroblast were tested by the method of Y. Murawaki et al., [Journal of Hepatology, 18, p. 328-334 (1993)], and their inhibitory activities for stromelysin derived from human fibroblast were measured by the method of S. S. Twining et al., [Anal. Biochem., 143, p. 30 (1984)].
Inhibitory activities for collagenase (MMP-1) of the compounds of Examples and comparative compounds were measured by the method of Y. Murawaki et al., [Journal of Hepatology, 18, p. 328-334 (1993)]. The latent procollagenase was activated by incubating with mercury aminophenylacetate (2 mM) at 35° C. for 2 hours. The assay was done by using bovine type I collagen labeled with fluorescein as a substrate. The activated collagenase was added to the substrate solution (0.5 mg/ml) in Tris HCl buffer (50 mM, pH 7.5) containing sodium chloride (0.4 M) and calcium chloride (10 mM). The obtained solution was incubated at 35° C. for 2 hours. The enzyme digestion was stopped by the addition of o-phenanthroline (80 mM). The mixture was added with pig spleen elastase solution (25 μg/ml) in the above Tris HCl buffer, and incubated 37° C. for 10 min. The obtained solution was added with 70% ethanol and Tris HCl buffer (170 mM, pH 9.5) containing sodium chloride (0.61 M), whereby the indigested substrate was sedimented by centrifuging at 3000 g for 20 min. The supernatant was taken, and its intensity of fluorescence was determined by the excitation wavelength (495 nm) and the measured wavelength (520 nm), and the inhibitory activity was obtained. IC50 is a concentration of a compound assayed in the digesting enzyme, whereby the splitting of the substrate was decreased to 50% compared with that attained by the enzyme alone.

stromelysin (MMP-3) = target: T3, stromelysin (MMP-3) (Homo sapiens, UniProt P08254); test: Assay for Stromelysin Inhibitory Activity (MMP-3); assay type: biochemical; conditions: fluorescein-labeled casein substrate, 37° C., 2 hours, pH 7.8; read-out: Inhibitory activities for matrix metalloproeinases (MMPs), MMP-3, IC50 value
T3 construct: endogenous in cells; host or cells: human fibroblast
Method: as §1
Inhibitory activities for stromelysin (MMP-3) of the compounds of Examples and comparative compounds were measured by the method of S. S. Twining et al., [Anal. Biochem., 143, p. 30 (1984)]. The latent prostromelysin was incubated with human plasmin (20 μg/ml) for the activation at 37° C. for 2 hours, and then the incubate was added with diisopropyl fluorophosphate solution (2.8 mg/ml) to stop the reaction. The assay was done by using casein labeled with fluorescein as the substrate. The activated stromelysin was added to a substrate solution (1 mg/ml) in Tris HCl buffer (50 mM, pH 7.8) containing calcium chloride (10 mM). The obtained solution was incubated at37° C. for 2 hours. The enzyme digestion forthesubstrate was stopped by adding 5% trichloroacetic acid. The indigested substrate was sedimented by centrifuging at 3000 g for 20 min. The supernatant was taken and added with Tris HCl buffer (0.5 M, pH 8.5), whereby its intensity of fluorescence was determined by the excitation wavelength (495 nm) and the measured wavelength (520 nm), and the inhibitory activity was obtained. IC50 is a concentration of a compound assayed in the digesting enzyme, whereby the splitting of the substrate was decreased to 50% compared with that attained by the enzyme alone.

[1] = Measurement of Solubility in Water; assay type: physicochemical; conditions: water, distilled water, 20±5° C., 30 min., checked by eye
Method: A compound of Examples or a comparative compound was added to distilled water and shaken vigorously at 20±5° C. for 30 seconds at 5 min. interval. After 30 min., it was checked by watching with eye whether the compound was dissolved or not.

T1 sequence (P78536 215-824): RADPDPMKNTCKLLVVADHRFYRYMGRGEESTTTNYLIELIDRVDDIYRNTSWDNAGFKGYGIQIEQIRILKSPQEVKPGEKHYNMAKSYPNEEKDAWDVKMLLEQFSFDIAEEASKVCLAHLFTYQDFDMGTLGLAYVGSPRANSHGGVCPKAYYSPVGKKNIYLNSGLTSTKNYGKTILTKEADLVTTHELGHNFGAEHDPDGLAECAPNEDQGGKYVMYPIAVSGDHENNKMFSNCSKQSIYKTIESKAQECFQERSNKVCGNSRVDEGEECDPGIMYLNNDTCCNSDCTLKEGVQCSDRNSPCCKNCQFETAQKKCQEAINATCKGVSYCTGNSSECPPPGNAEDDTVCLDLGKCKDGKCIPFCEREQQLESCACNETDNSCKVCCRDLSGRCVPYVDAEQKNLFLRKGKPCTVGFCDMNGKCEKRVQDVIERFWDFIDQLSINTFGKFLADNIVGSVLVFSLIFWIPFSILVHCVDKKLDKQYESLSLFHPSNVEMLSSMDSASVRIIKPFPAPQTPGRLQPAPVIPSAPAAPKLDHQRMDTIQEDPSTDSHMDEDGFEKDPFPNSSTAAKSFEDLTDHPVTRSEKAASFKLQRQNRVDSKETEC
T3 sequence (P08254 100-477): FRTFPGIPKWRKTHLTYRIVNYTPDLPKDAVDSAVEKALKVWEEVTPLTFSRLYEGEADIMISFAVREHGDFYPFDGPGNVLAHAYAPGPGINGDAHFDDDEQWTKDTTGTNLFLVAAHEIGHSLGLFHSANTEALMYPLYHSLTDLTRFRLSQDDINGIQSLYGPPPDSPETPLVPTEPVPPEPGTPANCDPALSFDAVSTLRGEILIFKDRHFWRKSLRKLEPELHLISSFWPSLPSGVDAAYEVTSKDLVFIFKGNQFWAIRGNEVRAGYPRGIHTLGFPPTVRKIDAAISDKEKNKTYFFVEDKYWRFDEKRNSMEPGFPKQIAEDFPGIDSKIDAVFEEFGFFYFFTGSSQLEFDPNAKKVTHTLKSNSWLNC

CNC(=O)[C@H](Cc1ccc(S(=O)(=O)O)cc1)NC(=O)[C@H](CC(C)C)C(CSc1cccs1)C(=O)NO (single isomer, unassigned) [Example 5, N-[4-(N-Hydroxyamino)-2(R)-isobutyl-3(R or S)-(thienylthiomethylene)succinyl]-L-4'-sulfophenylalanine-N-methylamide, Monosodium Salt]
IC50 (TNF-α converting enzyme): 500 nM

CNC(=O)[C@H](Cc1ccc(NC(=N)N)cc1)NC(=O)[C@H](CC(C)C)C(CCCc1ccccc1)C(=O)NO (single isomer, unassigned) [Example 8, N-[4-(N-Hydroxyamino)-2(R)-isobutyl-3(R or S)-(3-phenyltrimethylene)succinyl]-L-4'-guanidophenylalanine-N-methylamideMonoacetate]
IC50 (collagenase (MMP-1)): 6 nM
IC50 (stromelysin (MMP-3)): 6 nM
IC50 (TNF-α converting enzyme): 98 nM
solubility at 0.5 h [1]: 30 mg/mL (≈ 57.2 mM)

CCC(=N)NCc1ccc(C[C@H](NC(=O)[C@H](CC(C)C)C(CCCc2ccccc2)C(=O)NO)C(=O)NC)cc1 (single isomer, unassigned) [Example 11, N-[4-(N-Hydroxyamino)-2(R)-isobutyl-3(R or S)-(3-phenyltrimethylene)succinyl]-L-4'-propionimidoyliminomethylenephenylalanine-N-methylamide Monoacetate]
IC50 (collagenase (MMP-1)): 5.8 nM
IC50 (stromelysin (MMP-3)): 9 nM
IC50 (TNF-α converting enzyme): 400 nM

CNC(=O)[C@H](Cc1cccc(OS(=O)(=O)O)c1)NC(=O)[C@H](CC(C)C)C(CCCc1ccccc1)C(=O)NO (single isomer, unassigned) [Example 15, N-[4-(N-Hydroxyamino)-2(R)-isobutyl-3(R or S)-(3-phenyltrimethylene)succinyl]-O-sulfo-L-meta-tyrosine-N-methylamide, Monosodium Salt]
IC50 (collagenase (MMP-1)): 8 nM
IC50 (stromelysin (MMP-3)): 5.8 nM
solubility at 0.5 h [1]: 120 mg/mL

CNC(=O)[C@H](Cc1ccc(O)cc1)NC(=O)[C@H](CC(C)C)[C@H](CCCc1ccccc1)C(=O)NO [Comparative Compound 2, N-[4-(N-Hydroxyamino)-2(R)-isobutyl-3(S)-phenyltrimethylenesuccinyl]-L-tyrosine-N-methylamide, reference compound]
IC50 (collagenase (MMP-1)): 0.15 nM
IC50 (stromelysin (MMP-3)): 8 nM
solubility at 0.5 h [1]: < 1 mg/mL

CCCOC[C@H](C(=O)N[C@@H](Cc1ccc(OC)cc1)C(=O)NC)[C@H](CSC(C)C)C(=O)NO [Comparative Compound 4, N-[4-(N-Hydroxyamino)-2(R)-n-propyloxymethylene-3(S)-isopropylthiomethylenesuccinyl]-O-methyl-L-tyrosine-N-methylamide, reference compound]
IC50 (collagenase (MMP-1)): 11 nM
IC50 (stromelysin (MMP-3)): 100 nM
solubility at 0.5 h [1]: < 1 mg/mL

CNC(=O)[C@H](Cc1ccc(S(=O)(=O)O)cc1)NC(=O)C(CC(=O)NO)CC(C)C (stereo partly drawn) [Example 2, N-[4-(N-Hydroxyamino)-2(RS)-isobutylsuccinyl]-L-4'-sulfophenylalanine-N-methylamide, Monosodium Salt]
IC50 (collagenase (MMP-1)): 4.2 nM
IC50 (stromelysin (MMP-3)): 200 nM
solubility at 0.5 h [1]: > 250 mg/mL

CNC(=O)[C@H](Cc1ccc(S(=O)(=O)O)cc1)NC(=O)[C@H](CC(C)C)C(CCCc1ccccc1)C(=O)NO (stereo partly drawn) [Example 4, N-[4-(N-Hydroxyamino)-2(R)-isobutyl-3(RS)-(3-phenyltrimethylene)succinyl]-L-4'-sulfophenylalanine-N-methylamide, Monosodium Salt]
IC50 (TNF-α converting enzyme): 510 nM
solubility at 0.5 h [1]: 150 mg/mL

COc1ccc(NC(=O)[C@H](Cc2ccc(OS(=O)(=O)O)cc2)NC(=O)[C@H](CC(C)C)C(CCCc2ccccc2)C(=O)NO)cc1 (stereo partly drawn) [Example 7, N-[4-(N-Hydroxyamino)-2(R)-isobutyl-3(RS)-(3-phenyltrimethylene)succinyl]-O-sulfo-L-tyrosine-N-p-methoxyphenylamide, Monosodium Salt]
IC50 (collagenase (MMP-1)): 8 nM
IC50 (stromelysin (MMP-3)): 10 nM
solubility at 0.5 h [1]: 100 mg/mL

CNC(=O)[C@H](Cc1ccc(NC(=N)N)cc1)NC(=O)[C@H](CC(C)C)[C@H](O)C(=O)NO [Example 16, N-[4-(N-Hydroxyamino)-2(R)-isobutyl-3(S)-hydroxysuccinyl]-L-4'-guanidophenylalanine-N-methylamide Monoacetate]
IC50 (TNF-α converting enzyme): 7000 nM
